Target: T1, p38α (Homo sapiens, UniProt Q16539)
T1 construct: p38 MAP Kinases are recombinant human full-length proteins with an amino-terminal GST fusion; GST (N); purchased Upstate (Charlottesville, Va.); host or cells: E. coli
Assay: p38 MAP Kinase assay, ATF2 phosphorylation (ELISA)
Assay type: biochemical
Conditions: 40 μM ATP
From the text: Compounds of the invention are screened for the ability to inhibit ATF2 phosphorylation by p38 MAP Kinase in vitro. The ability of compounds to inhibit ATF2 phosphorylation in this in vitro assay is correlated with the inhibition of p38 MAP Kinase and TNFα expression in vivo, and is therefore an indicator of potential in vivo therapeutic activity (Raingeaud, J., et al, J. Biol. Chem., 270: 7420-7426, 1995, Brinkman, M. N., et al, J. Bil. Chem. 274: 30882-30886, 1999 and Fuchs, S. Y. et al, J. Biol. Chem. 275: 12560-12564, 2000).
All kinases and the substrate ATF2 are acquired from Upstate (Charlottesville, Va.). p38 MAP Kinases are recombinant human full-length proteins with an amino-terminal GST fusion, expressed in and purified from E. coli. ATF2 is a GST fusion protein containing amino acids 19-96 of human ATF2 expressed in E. coli. All proteins were aliquoted and stored at −80° C.
p38 MAP Kinase assays are performed using an assay buffer containing 25 mM HEPES, pH 7.5, 10 mM MgCl2, 2 mM DTT, 20 mM β-glycerophosphate, 0.1 mM Na3VO4, 40 μM ATP and 1.25 μM of ATF2, together with 6 ng of p38α protein, 12 ng p38β protein, 1.5 ng p38γ, or 0.4 ng JNK2α2. Compounds are serially diluted in DMSO and 2 μL of test compound at 25× final concentration is used. The vehicle control receives DMSO only. Test compounds are pre-incubated with 20 μl of enzyme in kinase buffer (25 mM HEPES, pH 7.5, 10 mM MgCl2, 2 mM DTT, 20 mM 3-glycerophosphate and 0.1 mM Na3VO4) at room temperature for 15 minutes. […] The reactions are incubated for 30 minutes at 37° C. and terminated by the addition of 18 μl of 200 mM EDTA. An ELISA method is used to measure the phosphorylation of ATF2 at Thr 69. High binding 96-well plates (Corning 3369) are coated with 50 μl of kinase reaction for 1 hour at 37° C. The coated plates are washed with 200 μl washing buffer (25 mM Tris HCl, pH 8.3, 192 mM glycine, 0.1% SDS and 0.05% Tween-20) three times. The plates are then washed three times with SuperBlock in TBS (Pierce, 37535). After blocking, plates are incubated with 50 μl of rabbit anti-phospho-ATF2 antibody (Cell Signaling, 9221 L, 1:500) for 30 minutes at 37° C. Plates are washed three times with washing buffer prior to incubation with 50 μl HRP-conjugated goat anti-rabbit antibody (Cell Signaling, 7074, 1:500) for 30 minutes at 37° C. Plates are then washed three times with washing buffer before incubation with 50 μl of Ultra TMB-ELISA (Pierce, 34028) for 8 minutes at room temperature. Finally, 50 μl of phosphoric acid (1 M) is added to stop reactions and plate absorbance is read at 450 nm on a SpectraMax 250 plate reader.

T1 sequence (Q16539 whole entry, the tested form may be a part): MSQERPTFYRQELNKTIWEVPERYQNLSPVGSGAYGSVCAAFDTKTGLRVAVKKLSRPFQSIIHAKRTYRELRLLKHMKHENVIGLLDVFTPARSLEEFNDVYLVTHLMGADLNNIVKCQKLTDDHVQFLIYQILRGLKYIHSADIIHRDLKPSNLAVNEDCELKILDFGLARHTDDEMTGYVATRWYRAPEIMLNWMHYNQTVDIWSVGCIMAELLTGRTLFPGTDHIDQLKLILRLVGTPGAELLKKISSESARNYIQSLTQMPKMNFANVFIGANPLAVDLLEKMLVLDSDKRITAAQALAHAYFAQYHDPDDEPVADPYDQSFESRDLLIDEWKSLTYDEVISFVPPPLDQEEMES

Structure (SMILES)	IC50 [nM]
CC(C)[C@@H](CO)Nc1nccc(-c2c(-c3ccc4c(c3)OCCO4)nc3sccn23)n1 [CCIII]	1410
CC(C)[C@@H](CO)Nc1nccc(-c2c(-c3ccc(C(F)(F)F)cc3)nc3sccn23)n1 [CCII]	924
Cc1csc2nc(-c3ccc(F)cc3)c(-c3ccnc(NC(CO)CO)n3)n12 [CCIV]	10100
OCC(CO)Nc1nccc(-c2c(-c3cccc(F)c3)nc3sccn23)n1 [CCVIII]	971
OCC(CO)Nc1nccc(-c2c(-c3ccc(F)c(F)c3)nc3sccn23)n1 [CCVI]	609
Cc1csc2nc(-c3ccc(F)cc3)c(-c3ccnc(N[C@H](CO)C(C)C)n3)n12 [CCV]	3190
Nc1cc(-c2c(-c3ccc(F)cc3)nc3sccn23)nc(NC2CC2)n1 [CCXXIII]	2080
Nc1cc(-c2c(-c3ccc(F)cc3)nc3sccn23)nc(NCC2CC2)n1 [CCXXIV]	1570
CC(C)(CO)CNc1nc(N)cc(-c2c(-c3ccc(F)cc3)nc3sccn23)n1 [CCXXIX]	1030
Nc1cc(-c2c(-c3ccc(F)cc3)nc3sccn23)nc(NCCc2ccncc2)n1 [CCXXVIII]	960
CCCNc1nc(N)cc(-c2c(-c3ccc(F)cc3)nc3sccn23)n1 [CCXXVII]	1330
CCOCCCNc1nc(N)cc(-c2c(-c3ccc(F)cc3)nc3sccn23)n1 [CCXXVI]	766
C[C@H](O)CNc1nc(N)cc(-c2c(-c3ccc(F)cc3)nc3sccn23)n1 [CCXXV]	1050
Nc1cc(-c2c(-c3ccc(F)cc3)nc3sccn23)nc(NC[C@H](O)c2ccccc2)n1 [CCXXX]	2570
Cc1ccc(-c2nc3sccn3c2-c2ccnc(NC(CO)CO)n2)cc1 [CCX]	558
O[C@H]1CCN(c2nccc(-c3c(-c4ccc(F)cc4)nc4occn34)n2)C1 [CII]	927
O[C@@H]1CCN(c2nccc(-c3c(-c4ccc(F)cc4)nc4occn34)n2)C1 [CI]	1420
c1ccc(-c2nc3sccn3c2-c2ccnc(NCc3ccco3)n2)cc1 [CLIII]	15.6
Fc1ccc(-c2nc3sccn3c2-c2ccnc(NCc3cccs3)n2)cc1 [CLII]	6.14
CCOC(=O)Cc1csc2nc(-c3ccc(F)cc3)c(-c3ccnc(SC)n3)n12 [CLIV]	1000
c1ccc(-c2nc3sccn3c2-c2ccnc(NCc3ccccn3)n2)cc1 [CLIX]	91.1
OCCCNc1nccc(-c2c(-c3ccccc3)nc3sccn23)n1 [CLVIII]	21.8
c1ccc(-c2nc3sccn3c2-c2ccnc(NC3CC3)n2)cc1 [CLVII]	5.29
CC(C)(C)OC(=O)CNc1nccc(-c2c(-c3ccc(F)cc3)nc3sccn23)n1 [CLVI]	58.6

Structure (SMILES)	IC50 [nM]
CCOC(=O)Cc1csc2nc(-c3ccc(F)cc3)c(-c3ccnc(NCc4ccco4)n3)n12 [CLXIII]	1000
CCOC(=O)Cc1csc2nc(-c3ccc(F)cc3)c(-c3ccnc(NCC(C)C)n3)n12 [CLXII]	1000
CCOC(=O)Cc1csc2nc(-c3ccc(F)cc3)c(-c3ccnc(N4CCCCC4)n3)n12 [CLXIV]	1000
COC(=O)C(Cc1ccccc1)Nc1nccc(-c2c(-c3ccc(F)cc3)nc3sccn23)n1 (centres unmarked) [CLXIX]	267
CCOC(=O)Cc1csc2nc(-c3ccc(F)cc3)c(-c3ccnc(NCC4CCCCC4)n3)n12 [CLXI]	1000
c1ccc(-c2nc3sccn3c2-c2ccncn2)cc1 [CLXVIII]	1460
CC(C)CNC(=O)Cc1csc2nc(-c3ccc(F)cc3)c(-c3ccnc(NCC(C)C)n3)n12 [CLXVII]	1000
O=C(Cc1csc2nc(-c3ccc(F)cc3)c(-c3ccnc(NCC4CCCCC4)n3)n12)NCC1CCCCC1 [CLXVI]	1000
O=C(Cc1csc2nc(-c3ccc(F)cc3)c(-c3ccnc(NCc4ccccc4)n3)n12)NCc1ccccc1 [CLXV]	1000
CC(C)[C@@H](Nc1nccc(-c2c(-c3ccc(F)cc3)nc3sccn23)n1)C(=O)OC(C)(C)C [CLXXIII]	81.4
CC(C)[C@@H](Nc1nccc(-c2c(-c3ccc(F)cc3)nc3sccn23)n1)C(=O)O [CLXXIV]	671
CC(CO)(CO)Nc1nccc(-c2c(-c3ccc(F)cc3)nc3sccn23)n1 [CLXXIX]	192
CC(O)CN(CC(C)O)c1nccc(-c2c(-c3ccc(F)cc3)nc3sccn23)n1 (centres unmarked) [CLXXVIII]	1000
OCCN(CCO)c1nccc(-c2c(-c3ccc(F)cc3)nc3sccn23)n1 [CLXXVII]	793
CN(CCO)c1nccc(-c2c(-c3ccc(F)cc3)nc3sccn23)n1 [CLXXVI]	1000
COc1cccc(-c2nc3sccn3c2-c2ccnc(SC)n2)c1 [CLXXV]	3390
OCCN1CCN(c2nccc(-c3c(-c4ccc(F)cc4)nc4sccn34)n2)CC1 [CLXXXIII]	1000
CC(C)C[C@H](CO)Nc1nccc(-c2c(-c3ccc(F)cc3)nc3sccn23)n1 [CLXXXII]	347
OC1CCN(c2nccc(-c3c(-c4ccc(F)cc4)nc4sccn34)n2)CC1 [CLXXXIV]	594
Cc1cn2c(-c3ccnc(S(C)(=O)=O)n3)c(-c3ccc(F)cc3)nc2s1 [CLXXXVII]	1850
OCC(CO)Nc1nccc(-c2c(-c3ccc(F)cc3)nc3sccn23)n1 [CLXXXV]	87.1
CC[C@H](C)C(Nc1nccc(-c2c(-c3ccc(F)cc3)nc3sccn23)n1)C(=O)OC (some centres unmarked) [CLXX]	13.4
CCOC(=O)Cc1csc2nc(-c3ccc(F)cc3)c(-c3ccnc(NCc4ccccc4)n3)n12 [CLX]	1000
OCCN(Cc1ccccc1)c1nccc(-c2c(-c3ccc(F)cc3)nc3sccn23)n1 [CXCII]	213

Structure (SMILES)	IC50 [nM]
OC[C@@H](Nc1nccc(-c2c(-c3ccc(F)cc3)nc3sccn23)n1)[C@H](O)c1ccccc1 [CXCIV]	565
COc1cccc(-c2nc3sccn3c2-c2ccnc(NCCOCCO)n2)c1 [CXCIX]	428
CSc1nccc(-c2c(-c3ccc(F)cc3)nc3sc(C)cn23)n1 [CXCI]	741
COc1cccc(-c2nc3sccn3c2-c2ccnc(NCC(O)CO)n2)c1 (centres unmarked) [CXCVIII]	649
COc1cccc(-c2nc3sccn3c2-c2ccnc(NCC(C)O)n2)c1 (centres unmarked) [CXCVII]	61.2
COc1cccc(-c2nc3sccn3c2-c2ccnc(N[C@H](CO)[C@H](O)c3ccccc3)n2)c1 [CXCVI]	819
COc1cccc(-c2nc3sccn3c2-c2ccnc(NC(C)CO)n2)c1 (centres unmarked) [CXCV]	44.7
COc1ccc(-c2nc3sccn3c2-c2ccnc(SC)n2)cc1 [CXC]	3040
Fc1ccc(-c2nc3sccn3c2-c2ccnc(NCc3ccco3)n2)cc1 [CXLIII]	8.22
CC(C)CNc1nccc(-c2c(-c3ccc(F)cc3)nc3sccn23)n1 [CXLII]	1.97
Fc1ccc(-c2nc3sccn3c2-c2ccnc(NCc3ccccc3)n2)cc1 [CXLI]	4.92
Fc1ccc(-c2nc3sccn3c2-c2ccnc(N3CCOCC3)n2)cc1 [CXLVI]	129
COc1ccc(CNc2nccc(-c3c(-c4ccc(F)cc4)nc4sccn34)n2)cc1 [CXLV]	65.5
Nc1nccc(-c2c(-c3ccc(F)cc3)nc3occn23)n1 [CXXIX]	97.4
COc1ccc(CNc2nccc(-c3c(-c4ccccc4)nc4sccn34)n2)cc1 [CXXXIII]	81.4
c1ccc(-c2nc3sccn3c2-c2ccnc(N3CCOCC3)n2)cc1 [CXXXIV]	113
CSc1nccc(-c2c(-c3ccc(F)cc3)nc3sccn23)n1 [CXXXIX, 6-(4-fluorophenyl)-5-(2-methylsulfanyl-pyrimidin-4-yl)-imidazo[2,1-b]thiazole]	635
c1ccc(CNc2nccc(-c3c(-c4ccccc4)nc4sccn34)n2)cc1 [CXXXI]	28.5
c1ccc(-c2nc3sccn3c2-c2ccnc(NCc3cccs3)n2)cc1 [CXXXVIII]	10.2
c1ccc(-c2nc3sccn3c2-c2ccnc(NCC3CCCCC3)n2)cc1 [CXXXVII]	65.7
Fc1ccc(CNc2nccc(-c3c(-c4ccccc4)nc4sccn34)n2)cc1 [CXXXVI]	150
c1ccc(-c2nc3sccn3c2-c2ccnc(N3CCCCC3)n2)cc1 [CXXXV]	396
CSc1nccc(-c2c(-c3ccccc3)nc3sccn23)n1 [CXXX]	228

— patent publication US20070270418A1, “Inhibitors of P38 and Methods of Using the Same” (priority 2003, published 2007)
